Results: patent publication US10131642B1, “Aldosterone synthase inhibitors” (Boehringer Ingelheim International GmbH, priority 2015, dated 2018)

What was measured:
[1] = molecular target: cortisol synthase (CYP11B1) (Macaca fascicularis, UniProt A0A2K5ULY1); assay: Inhibition of cortisol synthesis (cynomolgus adrenal mitochondria, cortisol by mass spectrometry); assay type: biochemical, cynomolgus monkey; conditions: cynomolgus adrenal gland mitochondria, 11-deoxycortisol as substrate, cortisol measured as product; read-out: CYP11B1 Inhibition IC50
Experimental: The aldosterone synthase and cortisol synthase inhibition assays employ cynomolgus adrenal gland mitochondria as the source of aldosterone synthase (CYP11B2) and cortisol synthase (CYP11B1). Mitochondria are prepared from frozen cynomolgus monkey adrenal glands according to Method A described in by J. D. McGarry et al. (Biochem. J., 1983, 214, 21-28), with a final resuspension in the AT buffer described in R. Yamaguchi et al. (Cell Death and Differentiation, 2007, 14, 616-624), frozen as aliquots in liquid nitrogen and stored at −80° C. until use. Activity of CYP11B2 and CYP11B1 in these preparations is defined as the amount of enzyme that generates 1 pmol of product in one hour under the conditions described. Dose dependent inhibition is quantified by the inclusion of compound at various concentrations. Maximum activity (100%) is defined by reactions containing NADPH, but without compound. Activities at each concentration are expressed as a percentage of the maximum activity (y-axis) and plotted against concentration of compound (x-axis) and the concentration corresponding to 50% activity (IC50) determined using the XLFit curve-fitting program using a 4-parameter logistic model. Assays are performed as for aldosterone synthase except for the use of 150 units of CYP11B1, 11-deoxycortisol as substrate and cortisol measured as product.

[2] = molecular target: T1, aldosterone synthase (CYP11B2) (Macaca fascicularis, UniProt A0A2K5UPL9); assay: Inhibition of aldosterone synthase (cynomolgus adrenal mitochondria, aldosterone by mass spectrometry); assay type: biochemical, cynomolgus monkey; conditions: cynomolgus adrenal gland mitochondria, 2 μM corticosterone substrate, 90 minutes at 37° C.
T1 construct: cynomolgus adrenal gland mitochondria as the source of aldosterone synthase (CYP11B2); from tissue; host or cells: cynomolgus monkey adrenal gland mitochondria
T1 sequence (A0A2K5UPL9 1-503): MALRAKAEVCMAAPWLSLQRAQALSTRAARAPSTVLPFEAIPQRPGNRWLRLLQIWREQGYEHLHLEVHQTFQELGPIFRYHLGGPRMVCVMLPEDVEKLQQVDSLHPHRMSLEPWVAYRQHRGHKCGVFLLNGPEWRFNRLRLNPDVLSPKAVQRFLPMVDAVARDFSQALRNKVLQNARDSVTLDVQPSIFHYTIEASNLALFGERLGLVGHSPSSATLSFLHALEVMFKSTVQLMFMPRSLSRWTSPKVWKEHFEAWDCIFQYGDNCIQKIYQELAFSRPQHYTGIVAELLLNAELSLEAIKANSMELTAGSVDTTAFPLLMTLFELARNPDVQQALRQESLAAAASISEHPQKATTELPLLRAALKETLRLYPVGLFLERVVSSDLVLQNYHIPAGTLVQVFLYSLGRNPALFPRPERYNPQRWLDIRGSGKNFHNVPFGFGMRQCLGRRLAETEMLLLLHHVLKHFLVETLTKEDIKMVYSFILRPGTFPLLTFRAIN
Experimental: The aldosterone synthase and cortisol synthase inhibition assays employ cynomolgus adrenal gland mitochondria as the source of aldosterone synthase (CYP11B2) and cortisol synthase (CYP11B1). Mitochondria are prepared from frozen cynomolgus monkey adrenal glands according to Method A described in by J. D. McGarry et al. (Biochem. J., 1983, 214, 21-28), with a final resuspension in the AT buffer described in R. Yamaguchi et al. (Cell Death and Differentiation, 2007, 14, 616-624), frozen as aliquots in liquid nitrogen and stored at −80° C. until use. Activity of CYP11B2 and CYP11B1 in these preparations is defined as the amount of enzyme that generates 1 pmol of product in one hour under the conditions described.
Assays are performed in 96-well format in a final volume of 60 µL/well, containing 100 mM potassium phosphate, pH 7.4, 1% (v/v) DMSO, and additionally, 2 μM of corticosterone and 50 units of CYP11B2 activity. Reactions are started by the addition of NADPH to 1 mM and allowed to proceed for 90 minutes at 37° C. Reactions are terminated by the addition of 60 μL of MeCN containing an internal standard for mass spectrometry. One hundred microliters are then transferred to a glass filter plate and centrifuged at 570×g for 5 minutes and the filtrate is collected. Reaction product aldosterone is quantified by mass spectrometry. To determine the assay blank value (0% activity), NADPH is omitted from some reactions.
Dose dependent inhibition is quantified by the inclusion of compound at various concentrations. Maximum activity (100%) is defined by reactions containing NADPH, but without compound. Activities at each concentration are expressed as a percentage of the maximum activity (y-axis) and plotted against concentration of compound (x-axis) and the concentration corresponding to 50% activity (IC50) determined using the XLFit curve-fitting program using a 4-parameter logistic model.

IC50 [1] [µM]	IC50 [2] [µM]	Structure (SMILES)
3.4	0.059	CC1(C)CC(=O)c2c(noc2Cc2ccc(OCCCS(C)(=O)=O)cc2)C1 [Cpd 27, 3-[4-(3-Methanesulfonyl-propoxy)-benzyl]-6,6-dimethyl-6,7-dihydro-5H-benzo[c]isoxazol-4-one]
7.4	0.073	CC1(C)CC(=O)c2c(noc2Cc2ccc(OCCS(C)(=O)=O)cc2)C1 [Cpd 29, 3-[4-(2-Methanesulfonyl-ethoxy)-benzyl]-6,6-dimethyl-6,7-dihydro-5H-benzo[c]isoxazol-4-one]
7.4	0.084	CC1(C)CC(=O)c2c(noc2Cc2cccc(F)c2)C1 [Cpd 31, 3-(3-Fluoro-benzyl)-6,6-dimethyl-6,7-dihydro-5H-benzo[c]isoxazol-4-one]
4.1	0.092	CC1(C)CC(=O)c2c(noc2Cc2ccc(Br)cc2)C1 [Cpd 33, 3-(4-Bromo-benzyl)-6,6-dimethyl-6,7-dihydro-5H-benzo[c]isoxazol-4-one]
11	0.074	CC1(C)CC(=O)c2c(noc2Cc2ccc(C#N)c(F)c2)C1 [Cpd 37, 4-(6,6-Dimethyl-4-oxo-4,5,6,7-tetra hydro-benzo[c]isoxazol-3-ylmethyl)-2-fluoro-benzonitrile]
> 100	> 1	CC1(C)CC(=O)c2c(noc2Cc2ccc(C(=O)O)cc2)C1 [Cpd 40, 4-(6,6-Dimethyl-4-oxo-4,5,6,7-tetrahydro-benzo[c]isoxazol-3-ylmethyl)-benzoic acid]
5.8	0.13	CC1(C)CC(=O)c2c(noc2Cc2ccc(C(=O)N3CC[C@@H](O)C3)cc2)C1 [Cpd 46, 3-[4-((R)-3-Hydroxy-pyrrolidine-1-carbonyl)-benzyl]-6,6-dimethyl-6,7-dihydro-5H-benzo[c]isoxazol-4-one]
14	0.032	CC1(C)CC(=O)c2c(noc2Cc2ccc(C(=O)N3CCCC3)cc2)C1 [Cpd 52, 6,6-Dimethyl-3-[4-(pyrrolidine-1-carbonyl)-benzyl]-6,7-dihydro-5H-benzo[c]isoxazol-4-one]
6.7	0.042	CC1(C)CC(=O)c2c(noc2Cc2ccc(C(=O)N3CC[C@H](S(C)(=O)=O)C3)cc2)C1 [Cpd 53, 3-[4-((S)-3-Methanesulfonyl-pyrrolidine-l-carbonyl)-benzyl]-6,6-dimethyl-6,7-dihydro-5H-benzo[c]isoxazol-4-one]
2.5	0.058	CC1(C)CC(=O)c2c(noc2Cc2ccc(C(=O)NCCS(N)(=O)=O)cc2)C1 [Cpd 54, 4-(6,6-Dimethyl-4-oxo-4,5,6,7-tetrahydro-benzo[c]isoxazol-3-ylmethyl)-N-(2-sulfamoyl-ethyl)-benzamide]
5.4	0.068	CCN(CCO)C(=O)c1ccc(Cc2onc3c2C(=O)CC(C)(C)C3)cc1 [Cpd 55, 4-(6,6-Dimethyl-4-oxo-4,5,6,7-tetrahydro-benzo[c]isoxazol-3-ylmethyl)-N-ethyl-N-(2-hydroxy-ethyl)-benzamide]
11	0.069	COCCN(C)C(=O)c1ccc(Cc2onc3c2C(=O)CC(C)(C)C3)cc1 [Cpd 56, 4-(6,6-Dimethyl-4-oxo-4,5,6,7-tetrahydro-benzo[c]isoxazol-3-ylmethyl)-N-(2-methoxy-ethyl)-N-methyl-benzamide]

Continued, compound first:

Structure (SMILES)	IC50 [1] [µM]	IC50 [2] [µM]
N#Cc1ccc(Cc2onc3c2C(=O)CC(Cc2ccccc2)C3)cc1 (stereo not shown) [Cpd 28, 4-(6-Benzyl-4-oxo-4,5,6,7-tetrahydro-benzo[c]isoxazol-3-ylmethyl)-benzonitrile]	4.9	0.065
N#Cc1ccc(Cc2onc3c2C(=O)CC(CC2CC2)C3)cc1 (stereo not shown) [Cpd 30, 4-(6-Cyclopropylmethyl-4-oxo-4,5,6,7-tetrahydro-benzo[c]isoxazol-3-ylmethyl)-benzonitrile]	14	0.074
COc1ccc(Cc2onc3c2C(=O)CC(C)(C)C3)cc1C#N [Cpd 34, 5-(6,6-Dimethyl-4-oxo-4,5,6,7-tetrahydro-benzo[c]isoxazol-3-ylmethyl)-2-methoxy-benzonitrile]	25	0.12
CC1(C)CC(=O)c2c(noc2Cc2ccc3c(c2)NC(=O)CO3)C1 [Cpd 35, 6-(6,6-Dimethyl-4-oxo-4,5,6,7-tetrahydro-benzo[c]isoxazol-3-ylmethyl)-4H-benzo[1,4]oxazin-3-one]	5.2	0.16
CC1CC(=O)c2c(noc2Cc2ccc(C#N)cc2)C1 (stereo not shown) [Cpd 36, 4-(6-Methyl-4-oxo-4,5,6,7-tetrahydro-benzo[c]isoxazol-3-ylmethyl)-benzonitrile]	7.6	0.2
N#Cc1ccc(Cc2onc3c2C(=O)CC2(CCC2)C3)cc1 [Cpd 38, 4-(-6,6-spiro-cyclobutyl-4-oxo-4,5,6,7-tetrahydro-benzo[c]isoxazol-3-ylmethyl)-benzonitrile]	1	0.055
CC1CC(=O)c2c(noc2Cc2ccc(C(=O)O)cc2)C1 (stereo not shown) [Cpd 41, 4-(6-Methyl-4-oxo-4,5,6,7-tetrahydro-benzo[c]isoxazol-3-ylmethyl)-benzoic acid]	20	0.66
O=C(O)c1ccc(Cc2onc3c2C(=O)CC(Cc2ccccc2)C3)cc1 (stereo not shown) [Cpd 42, 4-(6-Benzyl-4-oxo-4,5,6,7-tetrahydro-benzo[c]isoxazol-3-ylmethyl)-benzoic acid]	> 100	0.18
O=C(O)c1ccc(Cc2onc3c2C(=O)CC(CC2CC2)C3)cc1 (stereo not shown) [Cpd 45, 4-(6-Cyclopropylmethyl-4-oxo-4,5,6,7-tetrahydro-benzo[c]isoxazol-3-ylmethyl)-benzoic acid]	64	0.42
CC(C)C1CC(=O)c2c(noc2Cc2ccc(OCCCS(C)(=O)=O)cc2)C1 (stereo not shown) [Cpd 47, 6-Isopropyl-3-[4-(3-methanesulfonyl-propoxy)-benzyl]-6,7-dihydro-5H-benzo[c]isoxazol-4-one]	0.13	0.02
CC1CC(=O)c2c(noc2Cc2ccc(OCCCS(C)(=O)=O)cc2)C1 (stereo not shown) [Cpd 48, 3-[4-(3-Methanesulfonyl-propoxy)-benzyl]-6-methyl-6,7-dihydro-5H-benzo[c]isoxazol-4-one]	0.67	0.046
CS(=O)(=O)CCCOc1ccc(Cc2onc3c2C(=O)CC(Cc2ccccc2)C3)cc1 (stereo not shown) [Cpd 49, 6-Benzyl-3-[4-(3-methanesulfonyl-propoxy)-benzyl]-6,7-dihydro-5H-benzo[c]isoxazol-4-one]	1.1	0.15
CS(=O)(=O)CCCOc1ccc(Cc2onc3c2C(=O)CC2(CCC2)C3)cc1 [Cpd 50, 3-[4-(3-Methanesulfonyl-propoxy)-benzyl]-6-6-spirocyclebutyl-6,7-dihydro-5H-benzo [c]isoxazol-4-one]	0.58	0.072
NC(=O)c1ccc(Cc2onc3c2C(=O)CC(CC2CC2)C3)cc1 (stereo not shown) [Cpd 51, 4-(6-Cyclopropylmethyl-4-oxo-4,5,6,7-tetrahydro-benzo[c]isoxazol-3-ylmethyl)-benzamide]	3.7	0.021
